For the assay, the target named is T1, human GPR40 (Homo sapiens, UniProt O14842).
T1 construct: expressed in transfected cells
T1 sequence (O14842 whole entry): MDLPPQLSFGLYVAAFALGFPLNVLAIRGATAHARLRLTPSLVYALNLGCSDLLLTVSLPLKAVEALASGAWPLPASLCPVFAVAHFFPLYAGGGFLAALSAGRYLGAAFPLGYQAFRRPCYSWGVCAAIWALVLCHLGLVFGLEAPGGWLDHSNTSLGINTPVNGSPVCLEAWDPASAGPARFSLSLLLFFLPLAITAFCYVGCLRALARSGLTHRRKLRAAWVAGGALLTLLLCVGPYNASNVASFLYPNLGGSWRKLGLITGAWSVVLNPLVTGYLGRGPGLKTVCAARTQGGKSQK
Nature of the assay: Evaluation of human GPR40 agonist activity with increase in intracellular Ca2+ concentration as an index (FLIPR). It is filed as cell-based. Conditions: test compound 1 μM; CHO(dhfr−) cells stably expressing human GPR40; 100% = 10 μM compound of Example 153, 0% = DMSO. In outline: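 CHO(dhfr−) cells stably expressing full-length human GPR40 were loaded with Ca2+ probe for 1 h at room temperature, then given test compound at 1 μM final. Fluorescence was followed on FLIPR, with activity scaled to a reference agonist at 10 μM (100%) and DMSO (0%).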
In turn, `COc1ccc(C(=O)N(CC(C)(C)C)c2cccc(C)n2)c(N2CCC(COc3cccc(C(C)(C)CC(=O)O)c3)CC2)c1` [Example 277, 3-(3-((1-(2-((2,2-dimethylpropyl) (6-methylpyridin-2-yl)carbamoyl)-5-methoxyphenyl)piperidin-4-yl)methoxy)phenyl)-3-methylbutanoic acid] showed an activation at 1 µM of 110%. Then `COc1ccc(C(=O)N(CC(C)C)c2ccccn2)c(N2CCC(COc3cc(C(CC(=O)O)C4CC4)ccn3)CC2)c1` (stereo not drawn) [Example 113, 3-cyclopropyl-3-(2-((1-(5-methoxy-2-((2-methylpropyl)(pyridin-2-yl)carbamoyl)phenyl)piperidin-4-yl)methoxy)pyridin-4-yl)propanoic acid], with 102%; and `COc1ccc(C(=O)N(CC(C)(C)C)c2ccccn2)c(N2CCC(COc3cccc(C(CC(=O)O)C4CC4)c3)CC2)n1` (stereo not drawn) [Example 254, 3-cyclopropyl-3-(3-((1-(3-((2,2-dimethylpropyl)(pyridin-2-yl)carbamoyl)-6-methoxypyridin-2-yl)piperidin-4-yl)methoxy)phenyl)propanoic acid], with 74%; and `Cc1cccc(N(CC(C)(C)C)C(=O)c2ccc(OC(F)F)cc2N2CCC(COc3cc(C(CC(=O)O)C4CC4)ccn3)CC2)n1` (stereo not drawn) [Example 267, 3-cyclopropyl-3-(2-((1-(5-(difluoromethoxy)-2-((2,2-dimethylpropyl)(6-methylpyridin-2-yl)carbamoyl)phenyl)piperidin-4-yl)methoxy)pyridin-4-yl)propanoic acid], with 96%. Then `COc1ccc(C(=O)N(CC(F)(F)F)c2ccnc(C)n2)c(N2CCC(COc3cc(C(CC(=O)O)C4CC4)ccn3)CC2)c1` (stereo not drawn) [Example 239, 3-cyclopropyl-3-(2-((1-(5-methoxy-2-((2-methyl-pyrimidin-4-yl) (2,2,2-trifluoroethyl)carbamoyl)-phenyl)piperidin-4-yl)methoxy)pyridin-4-yl)propanoic acid], with 100%; and `COc1ccc(C(=O)N(CC(C)(C)C)c2nc(C)ccc2F)c(N2CCC(COc3cc(C(CC(=O)O)C4CC4)ccn3)CC2)c1` (stereo not drawn) [Example 234, 3-cyclopropyl-3-(2-((1-(2-((2,2-dimethylpropyl) (3-fluoro-6-methylpyridin-2-yl)carbamoyl)-5-methoxyphenyl)piperidin-4-yl)methoxy)pyridin-4-yl)propanoic acid], with 97%. In turn, `COc1ccc(C(=O)N(CC(C)(C)C)C2CCCC2)c(N2CCC(COc3cc(C(CC(=O)O)C4CC4)ccn3)CC2)c1` (stereo not drawn) [Example 198, 3-(2-((1-(2-(cyclopentyl(2,2-dimethylpropyl)carbamoyl)-5-methoxyphenyl)piperidin-4-yl)methoxy)pyridin-4-yl)-3-cyclopropylpropanoic acid] returned an activation at 1 µM of 94%. Then `COc1ccc(C(=O)N(CC(C)(F)F)c2ccccn2)c(N2CCC(COc3cc(C(CC(=O)O)C4CC4)ccn3)CC2)c1` (stereo not drawn) [Example 126, 3-cyclopropyl-3-(2-((1-(2-((2,2-difluoropropyl)(pyridin-2-yl)carbamoyl)-5-methoxyphenyl)piperidin-4-yl)methoxy)pyridin-4-yl)propanoic acid], with 99%. Then `COc1ccc(C(=O)N(CC(F)(F)F)c2nc(C)cc(C)n2)c(N2CCC(COc3cc(C(CC(=O)O)C4CC4)ccn3)CC2)c1` (stereo not drawn) [Example 168, 3-cyclopropyl-3-(2-((1-(2-((4,6-dimethylpyrimidin-2-yl)(2,2,2-trifluoroethyl)carbamoyl)-5-methoxyphenyl)piperidin-4-yl)methoxy)pyridin-4-yl)propanoic acid], with 100%. `COc1ccc(C(=O)N(C)C2CCN(CC(F)(F)F)CC2)c(N2CCC(COc3cc(C(CC(=O)O)C4CC4)ccn3)CC2)c1` (stereo not drawn) [Example 194, 3-cyclopropyl-3-(2-((1-(5-methoxy-2-(methyl(1-(2,2,2-trifluoroethyl)piperidin-4-yl)carbamoyl)phenyl)piperidin-4-yl)methoxy)pyridin-4-yl)propanoic acid] yielded an activation at 1 µM of 77%.

Consider `COc1ccc(C(=O)N(CCC(C)C)c2ccccn2)c(N2CCC(COc3cc(C(CC(=O)O)C4CC4)ccn3)CC2)c1` (stereo not drawn) [Example 159, 3-cyclopropyl-3-(2-((1-(5-methoxy-2-((3-methylbutyl)(pyridin-2-yl)carbamoyl)phenyl)piperidin-4-yl)methoxy)pyridin-4-yl)propanoic acid], for which the activation at 1 µM stood at 103%.

In turn, `CCc1ccc(C(=O)N(C)c2ncco2)c(N2CCC(COc3cccc(C(CC(=O)O)C4CC4)c3)CC2)c1` (stereo not drawn) [Example 57, 3-cyclopropyl-3-(3-((1-(5-ethyl-2-(methyl(1,3-oxazol-2-yl)carbamoyl)phenyl)piperidin-4-yl)methoxy)phenyl)propanoic acid] gave an activation at 1 µM of 58%.

`COc1ccc(C(=O)N(CC(C)(C)C)c2nc(C)cc(C)n2)c(N2CCC(COc3cc(C(CC(=O)O)C4CC4)ccn3)CC2)c1` (stereo not drawn) [Example 174, 3-cyclopropyl-3-(2-((1-(2-((2,2-dimethylpropyl)(4,6-dimethylpyrimidin-2-yl)carbamoyl)-5-methoxyphenyl)piperidin-4-yl)methoxy)pyridin-4-yl)propanoic acid] came in with an activation at 1 µM of 104%. Regarding `COc1ccc(C(=O)N(CC(C)(C)C)c2cccc(C)n2)c(N2CCC(COc3cc(C(CC(=O)O)C4CC4)c(F)cn3)CC2)c1` (stereo not drawn) [Example 274, 3-cyclopropyl-3-(2-((1-(2-((2,2-dimethylpropyl)-(6-methylpyridin-2-yl)carbamoyl)-5-methoxyphenyl)piperidin-4-yl)methoxy)-5-fluoropyridin-4-yl)propanoic acid], the activation at 1 µM was 104%. In the case of `COc1ccc(C(=O)N(CC(F)(F)F)c2cc(C)ccn2)c(N2CCC(COc3cc(C(CC(=O)O)C4CC4)ccn3)CC2)c1` (stereo not drawn) [Example 148, 3-cyclopropyl-3-(2-((1-(5-methoxy-2-((4-methylpyridin-2-yl)(2,2,2-trifluoroethyl)carbamoyl)phenyl)piperidin-4-yl)methoxy)pyridin-4-yl)propanoic acid] it was 104%; in that of `COc1ccc(C(=O)N(CC(C)C)c2ccnc(OC)c2)c(N2CCC(COc3cc(C(CC(=O)O)C4CC4)ccn3)CC2)c1` (stereo not drawn) [Example 127, 3-cyclopropyl-3-(2-((1-(5-methoxy-2-((2-methoxypyridin-4-yl)(2-methylpropyl)carbamoyl)phenyl)piperidin-4-yl)methoxy)pyridin-4-yl)propanoic acid], 94%. Then `COc1ccc(C(=O)N(CC2CC2)c2cccc(C)n2)c(N2CCC(COc3cc(C(CC(=O)O)C4CC4)ccn3)CC2)c1` (stereo not drawn) [Example 124, 3-cyclopropyl-3-(2-((1-(2-((cyclopropylmethyl)(6-methylpyridin-2-yl)carbamoyl)-5-methoxyphenyl)piperidin-4-yl)methoxy)pyridin-4-yl)propanoic acid], with 96%. In the case of `COc1ccc(C(=O)N(CC2CC(F)(F)C2)c2ccccn2)c(N2CCC(COc3cc(C(CC(=O)O)C4CC4)ccn3)CC2)c1` (stereo not drawn) [Example 162, 3-cyclopropyl-3-(2-((1-(2-(((3,3-difluorocyclobutyl)methyl)(pyridin-2-yl)carbamoyl)-5-methoxyphenyl)piperidin-4-yl)methoxy)pyridin-4-yl)propanoic acid] it was 99%; in that of `COc1ccc(C(=O)N(CC(C)C)c2cccc(C)n2)c(N2CCC(COc3cc(C(CC(=O)O)C4CC4)ccn3)CC2)c1` (stereo not drawn) [Example 122, 3-cyclopropyl-3-(2-((1-(5-methoxy-2-((2-methylpropyl)(6-methylpyridin-2-yl)carbamoyl)phenyl)piperidin-4-yl)methoxy)pyridin-4-yl)propanoic acid], 101%. In turn, `COc1ccc(C(=O)N(CC(C)C)c2cc(C)ccn2)c(N2CCC(COc3cc(C(CC(=O)O)C4CC4)ccn3)CC2)c1` (stereo not drawn) [Example 123, 3-cyclopropyl-3-(2-((1-(5-methoxy-2-((2-methylpropyl)(4-methylpyridin-2-yl)carbamoyl)phenyl)piperidin-4-yl)methoxy)pyridin-4-yl)propanoic acid] returned an activation at 1 µM of 99%.

Take `Cc1cccc(N(CC(C)(C)C)C(=O)c2ccc(C(N)=O)cc2N2CCC(COc3cc(C(CC(=O)O)C4CC4)ccn3)CC2)n1` (stereo not drawn) [Example 261, 3-(2-((1-(5-carbamoyl-2-((2,2-dimethylpropyl)(6-methylpyridin-2-yl)carbamoyl)phenyl)piperidin-4-yl)methoxy)pyridin-4-yl)-3-cyclopropylpropanoic acid]: the activation at 1 µM came out at 11%.

Turning to `COc1cc(N2CCC(COc3cc(C(CC(=O)O)C4CC4)ccn3)CC2)c(C(=O)N(CC(C)(C)C)c2cc(C)ncn2)cn1` (stereo not drawn) [Example 257, 3-cyclopropyl-3-(2-((1-(5-((2,2-dimethylpropyl)(6-methylpyrimidin-4-yl)carbamoyl)-2-methoxypyridin-4-yl)piperidin-4-yl)methoxy)pyridin-4-yl)propanoic acid], the activation at 1 µM worked out at 98%. Then `COc1ccc(C(=O)N(CC(F)F)c2nccc(C)n2)c(N2CCC(COc3cc(C(CC(=O)O)C4CC4)ccn3)CC2)c1` (stereo not drawn) [Example 172, 3-cyclopropyl-3-(2-((1-(2-((2,2-difluoroethyl)(4-methylpyrimidin-2-yl)carbamoyl)-5-methoxyphenyl)piperidin-4-yl)methoxy)pyridin-4-yl)propanoic acid], with 97%; and `COc1ccc(C(=O)N(CC(C)C)c2ncccc2C)c(N2CCC(COc3cc(C(CC(=O)O)C4CC4)ccn3)CC2)c1` (stereo not drawn) [Example 150, 3-cyclopropyl-3-(2-((1-(5-methoxy-2-((2-methylpropyl)(3-methylpyridin-2-yl)carbamoyl)phenyl)piperidin-4-yl)methoxy)pyridin-4-yl)propanoic acid], with 84%.
